# Patent US20260137698A1, “CYCLIN-DEPENDENT KINASE 7 INHIBITORS” (JOINT STOCK COMPANY «BIOCAD», priority 2022, published 2026)
# pIC50: −log10 of the molar value.
# Columns and labels:
# [1] = target: CDK9/Cyclin K (Homo sapiens, UniProt P50750); experiment: Inhibition of CDK9/Cyclin K kinase activity (ADP-Glo); type: biochemical; settings: mean value from several measurements; read-out: IC50 CDK9/Cyclin K
# Protocol: (§1) Measurements were carried out in a 5 μl reaction volume using a 384-well plate (Corning Inc., order no. 4513). The analyzed substances were titrated from 50 μM in increments of 4 at 11 concentration points in a normal strength kinase buffer A (Thermo Fisher Scientific Inc, cat. no. PV3189) supplemented with DTT (Sigma, orde. no. 646563-10X.5ML) and prepared with water (Panreac, order no. 701074). Kinase was diluted in an analogous buffer, mixed with test compounds in plate wells and preincubated for 10 minutes at 25° C. Following incubation, a mixture of reaction substrate (CDKtide (SignalChem, order no. C06-58) or Histone H1 (SignalChem, order no. H10-54N) or PDKtide (SignalChem, order no. P10-58) and ATP (SignalChem, order no. V915B) prepared on a normal strength kinase buffer A was added. 1% solution of dimethyl sulfoxide (DMSO) (Sigma-Aldrich, order no. D2438) in the reaction volume was used as a negative control. The final concentrations of all reaction components are shown in Table 5. The plate was centrifuged at 400 rcf (Eppendorf, 5804 R) for 1 minute and incubated for 40-60 minutes at 25° C. The amount of ATP consumed in the kinase reaction was then measured using the ADP-Glo™ detection system. Luminescence signal was measured using Spark 20M tablet multifunction reader (Tecan Group Ltd, Switzerland). IC50 value was calculated using Magellan 7.2 (Tecan Group Ltd, Switzerland) by approximating experimental points by four-parameter model with the optimization by Levenberg-Marquardt:
# (§2) [formula] • where A is the upper asymptote; D is the lower asymptote; C is IC50, half-maximal inhibitory concentration of kinase, nM; B is the curvature (slope).
# [2] = target: CDK2/Cyclin A (Homo sapiens, UniProt P24941); experiment: Inhibition of CDK2/Cyclin A kinase activity (ADP-Glo); type: biochemical; settings: mean value from several measurements; read-out: IC50 CDK2/Cyclin A
# Protocol: as §1, §2
# [3] = test system: MDA-MB-468 (triple negative breast cancer); experiment: Antiproliferative assay on MDA-MB-468 cells (AlamarBlue, 96 h); type: cell-based; settings: Homo sapiens, mean value from several measurements
# Protocol: The antiproliferative activity of CDK7 inhibitors according to the present invention was evaluated in a cell test using continuous cell cultures: MDA-MB-468 (triple negative breast cancer, ATCC® HTB-132™) and NCl-H82 (small cell lung cancer, ATCC® HTB-175™) using a viable AlamarBlue dye (Thermo Fisher Scientific Inc, order no. DAL1100). The cells were grown in DMEM (PanEco, order no. C330π) and RPMI-1640 (PanEco, order no. C330π), respectively. The basal growth medium was enriched with L-glutamine at a concentration of 2 mM (PanEco, order no. Φ032) and 10% fetal bovine serum (Gibco, order no. 16140-071). The night before measurement, MDA-MB-468 adherent cells were detached from plastic with a solution of trypsin-EDTA (PanEco, order no. Π039π), the solution was then inactivated by a DMEM complete medium, centrifuged at 1000 RPM (Eppendorf, 5804 R), a suspension of cells was prepared in a DMEM complete medium, introduced into 96-well culture plates (Corning Inc, order no. 3599) at 8×10^3 cells in 100 μl of medium per well. The next day, test compounds were dissolved in DMSO and diluted with a DMEM complete medium to a final concentration ranging from 50 μM to 10 pM. Diluted compounds in a volume of 50 μl were introduced into the plate wells with cells in triplicates (the final concentration of DMSO was no more than 1%) and incubated at 37° C. in an incubator with 5% CO2 for 96 hours. NCl-H82 suspension cell line was prepared on the day of the analysis. 10×10^3 cells in 100 μl of an RPMI-1640 complete medium were added to each well of a 96-well plate. The procedure for sample dilution is as described above. Cells with test compounds were incubated at 37° C. in an incubator with 5% CO2 for 120 hours. Following incubation, […] of AlamarBlue reagent (Thermo Fisher Scientific Inc., order no. DAL1100) was added to the wells, the contents of the plates were stirred in an orbital shaker (Biosan, Latvia), then further incubated for 5.5-6 hours at 37° C. in an incubator with 5% CO2. The number of viable cells was detected using the Infinite M200Pro microplate spectrophotometer (Tecan Group Ltd, Switzerland) by way of measuring a fluorescent signal at an excitation wavelength (λEx) of 540 nm and an emission wavelength (λEm) of 590 nm.
# IC50 value was calculated using the Magellan software (Tecan Group Ltd, Switzerland) by approximating experimental points by four-parameter model with the optimization by Levenberg-Marquardt: […]
# [4] = General cytotoxicity on primary differentiated HepaRG cells (72 h); type: cell-based; settings: human, general toxicity, mean value from several measurements
# Description: General cytotoxicity of CDK7 inhibitors according to the present invention was investigated using primary differentiated HepaRG cells (Biopredic Int, order no. HPR101). A week before the measurement, the cells were thawed and maintained in Basal hepatic cell medium (Biopredic Int, order no. MIL700079) supplemented with HepaRG maintenance/metabolism medium supplement with antibiotics (Biopredic Int, order no. ADD620C). The medium in vials with cells was changed every 2-3 days. The night before the test, the cells were plated in wells of 96-well plates (Corning Inc., order no. 3599) at 25×10^3 cells in 100 μl of medium per well. The next day, test compounds were introduced into plate wells with cells, untitrated at a concentration ranging from 200 μM to 0.2 nM, and incubated for 72 hours. Cell viability was assessed as described above.
# [5] = target: CDK7/Cyclin H/MNAT1 (Homo sapiens, UniProt P50613); experiment: Inhibition of CDK7/Cyclin H/MNAT1 kinase activity (ADP-Glo); type: biochemical; settings: mean value from several measurements; read-out: IC50 CDK7/Cyclin H/MNAT
# Protocol: as §1, §2
# [6] = Passive membrane permeability through PAMPA artificial membrane, pH 7.4; type: in vitro ADME; settings: pH 7.4, 10 μmol, 20 hours at room temperature, mean of multiple measurements, read-out: PAMPA passive permeability Pe
# Protocol: Passive membrane permeability of the compounds described in the present invention was determined using the PAMPA (parallel artificial membrane permeability assay) model at pH 7.4.
# We used a 96-well plate (Corning® BioCoat® Pre-coated PAMPA Plate System, order no. 353015), composed of acceptor and donor parts with cell membrane-modeling PVDF filter pre-impregnated with a lecithin-phospholipid bilayer. The substance (at a concentration of 10 μmol) in a 0.01 M phosphate buffer with pH 7.4 was introduced into a donor well of the plate, and pure buffer was introduced into an acceptor well; afterwards, the both parts were combined and incubated for 20 hours at room temperature so that the compound was redistributed between the two wells and the membrane. Verapamil (USP, USA, order no. 1711202) and propranolol (MCE LLC, USA, cat. no. HY-B0573/CS-2680) were used as control compounds with high and medium permeability. Samples were analyzed by reversed-phase HPLC with UV detection (Agilent 1260 chromatograph with UV detector) by determining their peak areas in the donor and acceptor wells.
# Permeability (Pe, cm/s) and retention factor (R, %) in the lipid bilayer were calculated using the formula:
# [formula] [formula] • Co is donor-well concentration of the substance at the initial moment of time t (μM); • CA (t) is acceptor-well concentration of the substance at time t (μM); • Vd is donor-well volume (0.3 ml); • Va is acceptor-well volume (0.15 ml).
# [formula] • A is filter area (0.3 cm^2); • t is incubation time (72000 s);
# Sequence of CDK9/Cyclin K (P50750 whole entry): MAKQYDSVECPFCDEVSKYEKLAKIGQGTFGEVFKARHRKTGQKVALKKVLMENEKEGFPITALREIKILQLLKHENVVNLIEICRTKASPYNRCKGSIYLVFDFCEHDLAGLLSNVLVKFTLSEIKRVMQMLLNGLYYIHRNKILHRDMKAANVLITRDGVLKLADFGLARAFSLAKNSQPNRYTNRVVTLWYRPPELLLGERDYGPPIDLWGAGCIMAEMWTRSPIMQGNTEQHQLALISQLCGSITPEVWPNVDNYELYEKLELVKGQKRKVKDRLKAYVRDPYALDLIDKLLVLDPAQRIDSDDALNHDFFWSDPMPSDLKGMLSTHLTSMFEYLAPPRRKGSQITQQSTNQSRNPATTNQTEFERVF
# Sequence of CDK9/Cyclin K (O75909 whole entry partner): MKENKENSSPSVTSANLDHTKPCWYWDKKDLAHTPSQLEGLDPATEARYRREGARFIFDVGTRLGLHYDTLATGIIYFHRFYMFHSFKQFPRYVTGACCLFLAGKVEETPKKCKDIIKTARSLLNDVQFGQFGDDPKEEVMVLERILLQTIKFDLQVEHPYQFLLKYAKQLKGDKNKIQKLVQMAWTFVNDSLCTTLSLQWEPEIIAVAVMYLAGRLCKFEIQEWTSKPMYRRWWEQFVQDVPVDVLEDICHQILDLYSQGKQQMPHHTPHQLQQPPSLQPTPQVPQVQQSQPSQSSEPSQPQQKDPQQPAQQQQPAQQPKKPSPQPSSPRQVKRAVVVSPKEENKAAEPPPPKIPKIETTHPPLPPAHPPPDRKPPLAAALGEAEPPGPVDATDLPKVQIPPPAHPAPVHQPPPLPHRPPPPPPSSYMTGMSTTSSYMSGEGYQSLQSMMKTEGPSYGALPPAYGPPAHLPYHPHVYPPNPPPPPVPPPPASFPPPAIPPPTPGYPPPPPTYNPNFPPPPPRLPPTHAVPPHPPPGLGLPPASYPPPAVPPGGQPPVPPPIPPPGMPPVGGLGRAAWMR
# Sequence of CDK7/Cyclin H/MNAT1 (P50613 whole entry): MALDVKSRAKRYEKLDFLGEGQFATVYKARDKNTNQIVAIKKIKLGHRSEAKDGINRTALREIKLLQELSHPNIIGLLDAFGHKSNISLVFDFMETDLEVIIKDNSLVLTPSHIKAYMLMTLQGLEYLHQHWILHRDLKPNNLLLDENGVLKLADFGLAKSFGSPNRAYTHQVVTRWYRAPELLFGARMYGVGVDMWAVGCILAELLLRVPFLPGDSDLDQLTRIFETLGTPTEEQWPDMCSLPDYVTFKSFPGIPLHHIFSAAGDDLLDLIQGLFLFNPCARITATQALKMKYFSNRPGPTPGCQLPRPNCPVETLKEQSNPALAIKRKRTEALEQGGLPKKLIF
# Sequence of CDK7/Cyclin H/MNAT1 (P51946 whole entry partner): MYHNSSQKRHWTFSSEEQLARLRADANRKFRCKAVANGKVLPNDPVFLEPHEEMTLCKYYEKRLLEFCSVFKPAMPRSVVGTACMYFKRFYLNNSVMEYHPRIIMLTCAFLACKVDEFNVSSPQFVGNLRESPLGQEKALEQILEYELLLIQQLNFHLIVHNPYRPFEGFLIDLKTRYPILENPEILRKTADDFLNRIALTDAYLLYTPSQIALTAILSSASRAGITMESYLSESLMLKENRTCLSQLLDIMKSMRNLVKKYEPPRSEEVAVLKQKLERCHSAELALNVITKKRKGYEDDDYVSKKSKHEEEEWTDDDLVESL
# Sequence of CDK7/Cyclin H/MNAT1 (P51948 whole entry partner): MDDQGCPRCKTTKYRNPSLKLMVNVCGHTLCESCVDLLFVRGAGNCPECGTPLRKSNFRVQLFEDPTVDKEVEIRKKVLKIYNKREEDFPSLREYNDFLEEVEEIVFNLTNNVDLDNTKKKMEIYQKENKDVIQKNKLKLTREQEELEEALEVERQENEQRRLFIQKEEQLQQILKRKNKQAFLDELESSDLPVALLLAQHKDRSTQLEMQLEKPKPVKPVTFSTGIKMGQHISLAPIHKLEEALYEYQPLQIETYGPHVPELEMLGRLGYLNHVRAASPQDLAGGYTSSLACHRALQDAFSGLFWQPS
pIC50 [1],pIC50 [2],pIC50 [3],pIC50 [5],"Papp at 20 h, 10 μmol [6]",SMILES,CC50 at 72 h [4]
7.30 to 8.30,< 6.70,7.00 to 8.00,> 8.30,< 10 nm/s,"O=C(NC1CC1)c1cc(-c2nc(N[C@H]3CCCNC3)ncc2C(F)(F)F)c[nH]1 [CDK7_951, N-cyclopropyl-4-(2-{[(3S)-piperidin-3-yl]amino}-5-(trifluoromethyl)pyrimidin-4-yl)-1H-pyrrole-2-carboxamide]",0.5 to 2 µM
–,–,–,–,< 10 nm/s,O=c1c2[nH]cc(-c3nc(N[C@H]4CCCNC4)ncc3C(F)(F)F)c2ccn1C1CCOCC1 [CDK7_1121],> 2 µM
< 6.70,7.30 to 8.30,–,7.30 to 8.30,< 10 nm/s,"CN1CCC(=O)c2c(-c3nc(N[C@H]4CCCNC4)ncc3C(F)(F)F)c[nH]c2C1=O [CDK7_1021, 7-methyl-3-(2-{[(3S)-piperidin-3-yl]amino}-5-(trifluoromethyl)py-rimidin-4-yl)-1H,4H,5H,6H,7H, 8H-pyrrolo[2,3-c]azepine-4,8-dione]",> 2 µM
< 6.70,< 6.70,6.00 to 7.00,7.30 to 8.30,–,"CN(C)C(=O)c1nc(-c2nc(N[C@H]3CCCNC3)ncc2C(F)(F)F)c[nH]1 [CDK7_966, N,N-dimethyl-4-(2-{[(3S)-piperidin-3-yl]amino}-5-(trifluoromethyl)py-rimidin-4-yl)-1H-imidazole-2-carboxamide]",> 2 µM
< 6.70,< 6.70,< 6.00,7.30 to 8.30,–,"CN(Cc1ccccc1)C(=O)c1cc(-c2nc(N[C@H]3CCCNC3)ncc2C(F)(F)F)c[nH]1 [CDK7_998, N-benzyl-N-methyl-4-(2-{[(3S)-piperidin-3-yl]amino}-5-(trifluoromethyl)pyrimidin-4-yl)-1H-pyrrole-2-carboxamide]",> 2 µM

# The next lines start with the molecule.
SMILES,pIC50 [1],pIC50 [2],pIC50 [3],pIC50 [5],"Papp at 20 h, 10 μmol [6]",CC50 at 72 h [4]
"Cc1ccc(P(C)(C)=O)c(Nc2nc(N[C@H]3CCCNC3)ncc2C(F)(F)F)c1 [CDK7_903, N4-[2-(dimethylphos-phoryl)-5-methylphenyl]-N2-[(3S)-piperidin-3-yl]-5-(trifluoromethyl) pyrimidine-2,4-diamine]",< 6.70,< 6.70,–,7.30 to 8.30,< 10 nm/s,–
"O=C(NCC(F)(F)F)c1cc(-c2nc(N[C@H]3CCCNC3)ncc2C(F)(F)F)c[nH]1 [CDK7_847, 4-(2-{[(3S)-piperidin-3-yl]amino}-5-(trifluoromethyl)pyrimidin-4-yl)-N-(2,2,2-trifluoroethyl)-1H-pyrrole-2-carboxamide]",7.30 to 8.30,< 6.70,7.00 to 8.00,7.30 to 8.30,–,0.1 to 0.5 µM
"O=C(NC1CCOCC1)c1cc(-c2nc(N[C@H]3CCCNC3)ncc2C(F)(F)F)c[nH]1 [CDK7_850, N-(oxan-4-yl)-4-(2-{[(3S)-piperidin-3-yl]amino}-5-(trifluoromethyl)pyrimidin-4-yl)-1H-pyrrole-2-carboxamide]",6.70 to 7.30,< 6.70,6.00 to 7.00,7.30 to 8.30,–,> 2 µM
"O=C(Nc1ncc[nH]1)c1cc(-c2nc(N[C@H]3CCCNC3)ncc2C(F)(F)F)c[nH]1 [CDK7_833, N-(1H-imidazol-2-yl)-4-(2-{[(3S)-piperidin-3-yl]amino}-5-(trifluoromethyl)pyrimidin-4-yl)-1H-pyrrole-2-carboxamide]",6.70 to 7.30,< 6.70,6.00 to 7.00,7.30 to 8.30,–,0.5 to 2 µM
"CS(=O)(=O)CCNC(=O)c1cc(-c2nc(N[C@H]3CCCNC3)ncc2C(F)(F)F)c[nH]1 [CDK7_848, N-(2-methanesulfon-ylethyl)-4-(2-{[(3S)-piperidin-3-yl]amino}-5-(trifluoromethyl)pyrimidin-4-yl)-1H-pyrrole-2-carboxamide]",7.30 to 8.30,< 6.70,< 6.00,7.30 to 8.30,–,> 2 µM
"FC(F)(F)c1cnc(N[C@H]2CCCNC2)nc1-n1nnc2ccccc21 [CDK7_811, 4-(1H-1,2,3-benzotriazol-1-yl)-N-[(3S)-piperidin-3-yl]-5-(trifluoromethyl)py-rimidin-2-amine]",–,< 6.70,6.00 to 7.00,7.30 to 8.30,50 to 100 nm/s,0.5 to 2 µM
"O=C(Nc1nccs1)c1cc(-c2nc(N[C@H]3CCCNC3)ncc2C(F)(F)F)c[nH]1 [CDK7_834, 4-(2-{[(3S)-piperidin-3-yl]amino}-5-(trifluoromethyl)pyrimidin-4-yl)-1N-(1,3-thiazol-2-yl)-1H-pyrrole-2-carboxamide]",7.30 to 8.30,< 6.70,7.00 to 8.00,7.30 to 8.30,–,0.1 to 0.5 µM
"O=C(NC1CCC(O)CC1)c1cc(-c2nc(N[C@H]3CCCNC3)ncc2C(F)(F)F)c[nH]1 (stereo partly drawn) [CDK7_851, N-(4-hydroxycyclo-hexyl)-4-(2-{[(3S)-piperidin-3-yl]amino}-5-(trifluoromethyl)pyrimidin-4-yl)-1H-pyrrole-2-carboxamide]",6.70 to 7.30,< 6.70,< 6.00,7.30 to 8.30,–,> 2 µM
